Results: US20080279781A1, “Glycosylated Carboranylporphyrins and Uses Thereof” (Brookhaven Science Associates, LLC, priority 2007, published 2008)

Experiments:
tumors = details: in vivo; cited from earlier work
EMT-6 mammary carcinomas = assay: Biodistribution of porphyrins in mice bearing EMT-6 carcinomas (boron by DCP-AES); type: in vivo, BALB/c mice; details: n = 5; for Average boron concentration, EMT-6 Tumor: wet tissue
Description: (§1) Porphyrin compounds (VII, XII, XXIII) were emulsified in 3% Cremophor EL and 6% propylene glycol in saline.
(§2) To prepare a solution of ˜3.5 mg/mL porphyrin in 3% Cremophor EL (CRM) and 6% propylene glycol (PRG), the porphyrin was dissolved in tetrahydrofuran (THF) (1.5% of the total volume) and then heated to 40° C. for 15 min. CRM (3% of total volume) was then added and the mixture was heated to 60° C. for 2 hours, which removed most of the THF. After cooling to room temperature, PRG (6% of total volume) was added, followed by slow dropwise addition of saline (89.5% of total volume) with rapid stirring. The solution was degassed by stirring under vacuum (˜30 mm Hg) for 30-60 min and then filtered (Millipore, 8 μm).
(§3) BALB/c mice bearing subcutaneously implanted EMT-6 mammary carcinomas implanted on the dorsal thorax were given a total dose of 200-230 milligrams porphyrin compound (VII or XII) per kilogram body weight (32-37 mg B/kg). Mice were given six intraperitoneal injections over a 2-day period with 3 injections per day at 4-hour intervals. At one and two days after the last injection, mice were euthanized, and tumor, blood, brain, and liver were removed for boron analyses by direct current-plasma-atomic-emission spectrometry (DCP-AES). The blood was first analyzed for hematologic parameters that indicate toxicity before it was analyzed for boron.

[1] = Weight changes and hematologic parameters in mice bearing EMT-6 carcinomas; type: in vivo, BALB/c mice; details: median (range), 5 mice
Description: as §3

[2] = tested on: SCCVII squamous cell carcinomas; assay: Biodistribution of porphyrins in mice bearing SCCVII squamous cell carcinomas; type: in vivo, C3H mice; details: for Average boron concentration, SCCVII Tumor: wet tissue
Description: as §1, §2
(§4) C3H mice bearing subcutaneously implanted SCCVII squamous cell carcinomas implanted on the dorsal thorax were given a total dose of 450 milligrams porphyrin compound VII per kilogram body weight (70 mg B/kg) via 6 i.p. injections given over a period of 2 days (3/day over 8 hours). Mice were given porphyrin XXIII at a total dose of 160 mg/kg (36 mg/kg B) via 3 i.p. injections given over a period of 8 hours. At one and two days after the last injection, mice were euthanized, and tumor, blood, brain, and liver were removed for boron analyses. The blood was first analyzed for hematologic parameters that indicate toxicity before it was analyzed for boron.

[3] = Weight changes and hematologic parameters in mice bearing SCCVII carcinomas; type: in vivo, C3H mice; details: for % Weight change / Granulocytes / Lymphocytes / Platelets: median (range)
Description: as §4

[4] = 230 mg/kg (37 mg B/kg) in 6 i.p. injections over 2 days, 1 d after last injection
[5] = 230 mg/kg (37 mg B/kg) in 6 i.p. injections over 2 days, 2 d after last injection
[6] = 230 mg/kg i.p., 1 d after last injection
[7] = 230 mg/kg i.p., 2 d after last injection
[8] = 200 mg/kg (32 mg B/kg) in 6 i.p. injections over 2 days, 1 d after last injection
[9] = 200 mg/kg (32 mg B/kg) in 6 i.p. injections over 2 days, 2 d after last injection
[10] = 450 mg/kg (70 mg B/kg) in 6 i.p. injections over 2 days, 1 d after last injection, 5 mice
[11] = 450 mg/kg (70 mg B/kg) i.p., 1 d after last injection, 5 mice
[12] = 200 mg/kg i.p., 1 d after last injection
[13] = 200 mg/kg i.p., 2 d after last injection
[14] = 160 mg/kg (36 mg B/kg in title, 160/39 in table) in 3 i.p. injections over 8 hours, 1 d after last injection, 4 mice
[15] = 160 mg/kg (36 mg B/kg in title, 160/39 in table) in 3 i.p. injections over 8 hours, 2 d after last injection, 4 mice
[16] = 180 mg/kg (39 mg B/kg) per table title, 160 mg/kg in text, i.p., 1 d after last injection, 4 mice
[17] = 180 mg/kg (39 mg B/kg) per table title, 160 mg/kg in text, i.p., 2 d after last injection, 4 mice

N[C@@H](Cc1ccc(B(O)O)cc1)C(=O)O [BPA, p-boronophenylalanine]
chemical toxicity (tumors): low chemical toxicity

Copper (II) meso-5,15-bis[3-(o-carboranylmethoxy)phenyl]-10,20-bis[3-(β-D-galactose)phenyl]porphyrin [Porphyrin XII]
Average boron concentration, Blood (EMT-6 mammary carcinomas; [4]): 0.4 ± 0.1 μg B/g
Average boron concentration, Brain (EMT-6 mammary carcinomas; [4]): 0.0 ± 0.1 μg B/g
Average boron concentration, Liver (EMT-6 mammary carcinomas; [4]): 473 ± 102 μg B/g
Average boron concentration, Blood (EMT-6 mammary carcinomas; [5]): 0.2 ± 0.1 μg B/g
Average boron concentration, Brain (EMT-6 mammary carcinomas; [5]): 0.0 ± 0.1 μg B/g
Average boron concentration, Liver (EMT-6 mammary carcinomas; [5]): 354 ± 352 μg B/g
Average boron concentration, EMT-6 Tumor (EMT-6 mammary carcinomas; [4]): 16.7 ± 8.3 μg B/g
Average boron concentration, EMT-6 Tumor (EMT-6 mammary carcinomas; [5]): 12.6 ± 5.2 μg B/g
% Weight change [1, 6]: 1.2 (−3.5-4.8) %
Granulocytes [1, 6]: 61 (38-71) % WBC
Lymphocytes [1, 6]: 36 (26-59) % WBC
Platelets [1, 6]: 962 (944-1306) 10^3/mm^3
% Weight change [1, 7]: 3.4 (−2.2-4.8) %
Granulocytes [1, 7]: 43 (34-76) % WBC
Lymphocytes [1, 7]: 54 (22-63) % WBC
Platelets [1, 7]: 797 (736-877) 10^3/mm^3

copper (II) meso-5,15-bis[3-(o-carboranylmethoxy)phenyl]-10,20-bis[3-(β-D-glucosyl)phenyl]porphyrin [Porphyrin VII]
Average boron concentration, Blood (EMT-6 mammary carcinomas; [8]): 0.4 ± 0.1 μg B/g
Average boron concentration, Brain (EMT-6 mammary carcinomas; [8]): 0.0 ± 0.0 μg B/g
Average boron concentration, Liver (EMT-6 mammary carcinomas; [8]): 457 ± 74 μg B/g
Average boron concentration, Blood (EMT-6 mammary carcinomas; [9]): 0.2 ± 0.0 μg B/g
Average boron concentration, Brain (EMT-6 mammary carcinomas; [9]): 0.0 ± 0.0 μg B/g
Average boron concentration, Liver (EMT-6 mammary carcinomas; [9]): 492 ± 83 μg B/g
Average boron concentration, EMT-6 Tumor (EMT-6 mammary carcinomas; [8]): 20.2 ± 6.3 μg B/g
Average boron concentration, EMT-6 Tumor (EMT-6 mammary carcinomas; [9]): 19.0 ± 5.4 μg B/g
Average boron concentration, Blood [2, 10]: 1.0 ± 0.1 µg/g
Average boron concentration, Brain [2, 10]: 0.3 ± 0.1 µg/g
Average boron concentration, Liver [2, 10]: 787 ± 70 µg/g
Average boron concentration, SCCVII Tumor [2, 10]: 29.1 ± 7.9 µg/g
% Weight change [3, 11]: −1.2 (−2.6-1.9) %
Granulocytes [3, 11]: 46 (41-50) % WBC
Lymphocytes [3, 11]: 50 (46-56) % WBC
Platelets [3, 11]: 739 (628-751) 10^3/mm^3
thrombocytopenia ([3]; very high dose of 450 mg/kg): no thrombocytopenia
% Weight change [1, 12]: −0.18 (−5.6-4.7) %
Granulocytes [1, 12]: 49 (43-61) % WBC
Lymphocytes [1, 12]: 47 (37-54) % WBC
Platelets [1, 12]: 504 (111-783)* 10^3/mm^3
% Weight change [1, 13]: 3.5 (−1.5-3.9) %
Granulocytes [1, 13]: 45 (40-54) % WBC
Lymphocytes [1, 13]: 52 (44-56) % WBC
Platelets [1, 13]: 935 (840-1039) 10^3/mm^3

copper (II) meso-5,15-bis[m-(3,5-di-o-carboranylmethoxybenzyloxy)phenyl]-10,20-bis[3-(β-D-glucosyl)phenyl]porphyrin [Porphyrin XXIII]
Average boron concentration, Blood [2, 14]: 0.6 ± 0.1 µg/g
Average boron concentration, Brain [2, 14]: 0.1 ± 0.0 µg/g
Average boron concentration, Liver [2, 14]: 540 ± 32 µg/g
Average boron concentration, Blood [2, 15]: 0.3 ± 0 µg/g
Average boron concentration, Brain [2, 15]: 0.0 ± 0.0 µg/g
Average boron concentration, Liver [2, 15]: 534 ± 59 µg/g
Average boron concentration, SCCVII Tumor [2, 14]: 16.9 ± 2.6 µg/g
Average boron concentration, SCCVII Tumor [2, 15]: 14.5 ± 2.9 µg/g
% Weight change [3, 16]: 0.5 (−1.9-3.2) %
Granulocytes [3, 16]: 43 (32-46) % WBC
Lymphocytes [3, 16]: 53 (48-64) % WBC
Platelets [3, 16]: 775 (618-881) 10^3/mm^3
% Weight change [3, 17]: 3.2 (0.9-6.3) %
Granulocytes [3, 17]: 39 (36-43) % WBC
Lymphocytes [3, 17]: 57 (51-59) % WBC
Platelets [3, 17]: 655 (610-723) 10^3/mm^3
platelet count in comparison with the control mice ([3]; moderately high dose of 160 mg/kg): did not show any decrease in platelet count
